{"source": "patent US11279702B2", "about": "“AMPK activators” (Kallyope, Inc., priority 2020, dated 2022)", "key": {"[1]": {"tested_on": "Mouse In Vivo Chemotherapy-Induced Intestinal Injury Model", "experiment": "Diarrhea in chemotherapy (5FU)-induced intestinal injury model", "parameters": "species or system BALB/c mice", "description": "Compounds were formulated in vehicle (0.25% methyl cellulose, 5% Tween 80, 0.02% sodium dodecyl sulfate (SDS) in Hanks' Buffered Salt Solution with Ca2+ and Mg2+). On day 1, either saline or a 400 mg/kg dose of 5-fluorouracil (5FU) in saline was administered by intraperitoneal injection to BALB/c mice. Starting on day 2, vehicle or compound was administered once or twice a day by oral gavage. In some instances, compound was also administered once or twice a day by oral gavage from day −3 to day −1 (pre-5FU). From days 5 to 6 post-5FU, the animals were scored for diarrhea severity once a day. The diarrhea was scored 0-3 as follows: 0—normal consistency (black and solid), 1—soft (black and a bit lighter/yellow), 2—loosely shaped stool (yellowish and somewhat watery), 3—extreme diarrhea (very watery). Day 5 and day 6 diarrhea scores following administration of certain compounds were lower than vehicle control mice. […] In addition, Compound 1 was efficacious at doses as low as 3 mg/kg BID (6 mg/kg total daily dose)."}, "[2]": {"experiment": "Concentrations in colon post oral dosing", "type": "in vivo, mouse", "conditions": "PO 30 mg/kg", "description": "A time course for colonic exposure to Compound A1 was determined in mouse following a single bolus oral (PO) gavage of 30 mg/kg of A1. Whole colon from cecum to rectum was collected at 2, 4, 6, and 8 hours post-dose and snap frozen. Tissue was homogenized and the concentration of A1 was measured."}, "[3]": {"target": "Recombinant AMPK α1/β1/γ1 complex (Homo sapiens (Human), UniProt Q13131+Q9Y478)", "sequence (Q13131 whole entry)": "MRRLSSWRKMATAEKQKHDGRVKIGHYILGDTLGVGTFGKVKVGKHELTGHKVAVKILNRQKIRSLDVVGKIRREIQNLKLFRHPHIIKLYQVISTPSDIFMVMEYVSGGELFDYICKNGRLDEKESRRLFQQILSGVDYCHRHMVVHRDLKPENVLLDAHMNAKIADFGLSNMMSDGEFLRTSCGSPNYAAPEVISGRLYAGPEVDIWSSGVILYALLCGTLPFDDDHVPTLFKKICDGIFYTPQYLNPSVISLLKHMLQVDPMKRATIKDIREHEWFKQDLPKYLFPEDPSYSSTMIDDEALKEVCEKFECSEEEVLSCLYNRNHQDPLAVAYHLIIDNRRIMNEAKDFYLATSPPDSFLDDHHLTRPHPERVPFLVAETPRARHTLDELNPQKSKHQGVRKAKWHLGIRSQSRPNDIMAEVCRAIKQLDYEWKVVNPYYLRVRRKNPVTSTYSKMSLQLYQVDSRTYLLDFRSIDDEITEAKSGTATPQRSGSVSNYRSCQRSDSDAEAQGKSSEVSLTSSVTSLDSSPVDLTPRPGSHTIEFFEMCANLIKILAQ", "sequence (Q9Y478 whole entry)": "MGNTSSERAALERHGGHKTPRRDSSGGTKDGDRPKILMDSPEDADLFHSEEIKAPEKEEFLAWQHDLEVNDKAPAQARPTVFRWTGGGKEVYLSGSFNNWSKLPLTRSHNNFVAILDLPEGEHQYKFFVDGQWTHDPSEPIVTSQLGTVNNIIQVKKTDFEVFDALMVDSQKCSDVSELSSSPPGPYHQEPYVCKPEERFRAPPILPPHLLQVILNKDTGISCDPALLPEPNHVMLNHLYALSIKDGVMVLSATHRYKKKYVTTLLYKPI", "sequence (P54619 whole entry partner)": "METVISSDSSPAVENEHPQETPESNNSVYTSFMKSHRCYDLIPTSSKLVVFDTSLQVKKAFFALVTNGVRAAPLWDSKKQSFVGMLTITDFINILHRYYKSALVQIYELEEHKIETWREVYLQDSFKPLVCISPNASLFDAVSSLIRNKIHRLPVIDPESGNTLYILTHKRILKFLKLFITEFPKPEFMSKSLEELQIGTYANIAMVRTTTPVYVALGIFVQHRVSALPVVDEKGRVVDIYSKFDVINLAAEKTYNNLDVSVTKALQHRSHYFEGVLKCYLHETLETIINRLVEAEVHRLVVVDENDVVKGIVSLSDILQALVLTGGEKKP", "experiment": "In vitro pAMPK1 kinase activation assay (ADP-Glo, SAMS peptide)", "type": "biochemical", "conditions": "at 10 μM"}, "[4]": {"tested_on": "Acetyl CoA Carboxylase (ACC) Phosphorylation in Mouse Muscle", "experiment": "Level of ACC phosphorylation in mouse muscle", "type": "in vivo, C57BL/6J mice", "description": "Systemic AMPK target engagement in vivo can be assessed by measuring the site-specific phosphorylation of a direct AMPK substrate, acetyl-coenzyme A carboxylase (ACC), in a well perfused tissue such as muscle.\nCompounds were formulated in vehicle (0.25% methyl cellulose, 5% Tween 80, 0.02% sodium dodecyl sulfate (SDS) in Hanks' Buffered Salt Solution with Ca^2+ and Mg^2+). Male C57BL/6J mice were administered vehicle or compound once daily for 5 days. On the final day of dosing (day 1 for acute assessment, day 5 for sub-chronic assessment), mice were euthanized by cervical dislocation five hours post dose and samples of skeletal muscle (gastrocnemius) were removed and snap frozen in liquid nitrogen.\nFrozen muscle tissues were homogenized. Homogenates were analyzed for protein concentration and equal amounts of protein were assayed for total and phosphorylated ACC (p-ACC) levels using Meso Scale Discovery's Multi-array assay kit. The ratio of p-ACC/total ACC was determined for each sample."}}}
{"smiles": "O=C(O)CSc1nc2cc(-c3ccc(-c4ccccc4O)cc3)c(Cl)cc2[nH]1", "note": "[Compound A1]", "values": [{"measurement": "Diarrhea Score % Change vs. Vehicle", "setting": "[1]; 30 mg/kg QD, Day 5", "result": "+38%"}, {"measurement": "Diarrhea Score", "setting": "[1]; 30 mg/kg QD, Day 5, score 0-3", "result": 1.38}, {"measurement": "Diarrhea Score % Change vs. Vehicle", "setting": "[1]; 30 mg/kg QD, Day 6", "result": "−29", "unit": "%"}, {"measurement": "Diarrhea Score", "setting": "[1]; 30 mg/kg QD, Day 6, score 0-3", "result": 1.25}, {"measurement": "colonic exposure profile", "setting": "[2]; 2 to 8 hours post-dose", "result": "122 to 255", "unit": "µM"}, {"measurement": "concentration in colon", "setting": "[2]; 2 h post dosing", "result": 254, "unit": "µM"}, {"measurement": "concentration in colon", "setting": "[2]; 4 h post dosing", "result": 122, "unit": "µM"}, {"measurement": "concentration in colon", "setting": "[2]; 6 h post dosing", "result": 128, "unit": "µM"}, {"measurement": "concentration in colon", "setting": "[2]; 8 h post dosing", "result": 205, "unit": "µM"}, {"measurement": "activation compared with AMP", "setting": "[3]", "result": "activation greater than that displayed by AMP"}]}
{"smiles": "O=C(O)CSc1nc2nc(-c3ccc(-c4ccccc4O)cc3)c(Cl)cc2[nH]1", "note": "[Compound 1, 2-((6-chloro-5-(2′-hydroxy-[1,1′-biphenyl]-4-yl)-1H-imidazo[4,5-b]pyridin-2-yl)thio)acetic Acid]", "values": [{"measurement": "% p-ACC/ACC ratio change vs. Vehicle, Sub-chronic (5 days)", "setting": "[4]; 30 mg/kg once daily for 5 days, five hours post dose, gastrocnemius", "result": 29.6, "unit": "%"}, {"measurement": "% p-ACC/ACC ratio change vs. Vehicle, Acute (5 hr)", "setting": "[4]; 30 mg/kg, day 1, five hours post dose, gastrocnemius", "result": 6.6, "unit": "%"}, {"measurement": "ratio of pACC/total ACC compared with vehicle control mice", "setting": "[4]; 30 mg/kg, one-way ANOVA vs vehicle (Dunnett's post-test)", "result": "not significantly changed"}, {"measurement": "Diarrhea Score % Change vs. Vehicle", "setting": "[1]; 3 mg/kg BID, Day 5", "result": "−17", "unit": "%"}, {"measurement": "Diarrhea Score", "setting": "[1]; 3 mg/kg BID, Day 5, score 0-3", "result": 0.50}, {"measurement": "Diarrhea Score % Change vs. Vehicle", "setting": "[1]; 3 mg/kg BID, Day 6", "result": "−56", "unit": "%"}, {"measurement": "Diarrhea Score", "setting": "[1]; 3 mg/kg BID, Day 6, score 0-3", "result": 0.75}, {"measurement": "Diarrhea Score % Change vs. Vehicle", "setting": "[1]; 10 mg/kg BID, Day 5", "result": "−28", "unit": "%"}, {"measurement": "Diarrhea Score", "setting": "[1]; 10 mg/kg BID, Day 5, score 0-3", "result": 0.43}, {"measurement": "Diarrhea Score % Change vs. Vehicle", "setting": "[1]; 10 mg/kg BID, Day 6", "result": "−71", "unit": "%"}, {"measurement": "Diarrhea Score", "setting": "[1]; 10 mg/kg BID, Day 6, score 0-3", "result": 0.50}, {"measurement": "Diarrhea Score % Change vs. Vehicle", "setting": "[1]; 30 mg/kg BID, Day 5", "result": "−100", "unit": "%"}, {"measurement": "Diarrhea Score", "setting": "[1]; 30 mg/kg BID, Day 5, score 0-3", "result": 0}, {"measurement": "Diarrhea Score % Change vs. Vehicle", "setting": "[1]; 30 mg/kg BID, Day 6", "result": "−66", "unit": "%"}, {"measurement": "Diarrhea Score", "setting": "[1]; 30 mg/kg BID, Day 6, score 0-3", "result": 0.57}, {"measurement": "Diarrhea Score % Change vs. Vehicle", "setting": "[1]; 30 mg/kg QD, Day 5", "result": "−30", "unit": "%"}, {"measurement": "Diarrhea Score", "setting": "[1]; 30 mg/kg QD, Day 5, score 0-3", "result": 0.63}, {"measurement": "Diarrhea Score % Change vs. Vehicle", "setting": "[1]; 30 mg/kg QD, Day 6", "result": "−58", "unit": "%"}, {"measurement": "Diarrhea Score", "setting": "[1]; 30 mg/kg QD, Day 6, score 0-3", "result": 0.75}, {"measurement": "Diarrhea Score % Change vs. Vehicle", "setting": "[1]; 100 mg/kg BID, Day 5", "result": "−63", "unit": "%"}, {"measurement": "Diarrhea Score", "setting": "[1]; 100 mg/kg BID, Day 5, score 0-3", "result": 0.38}, {"measurement": "Diarrhea Score % Change vs. Vehicle", "setting": "[1]; 100 mg/kg BID, Day 6", "result": "−79", "unit": "%"}, {"measurement": "Diarrhea Score", "setting": "[1]; 100 mg/kg BID, Day 6, score 0-3", "result": 0.38}, {"measurement": "activation compared with AMP", "setting": "[3]", "result": "activation greater than that displayed by AMP"}]}
